Measurements taken from patent publication US6344350B1, “Method for degradation of pinenes by bacillus isolates” (priority 1997, dated 2002).

Experiments:
BR424 = experiment: Growth of BR424 on monoterpenes; type: cell-based, Bacillus isolate BR424
Bacillus isolate BR425 = experiment: Growth of BR425 on monoterpenes as carbon source (CFU); type: cell-based; details: for growth in media containing the monoterpene as the carbon source: BR425; for optimal concentration for growth: BR425, M9 salts, monoterpene as carbon source, 50° C.
Description: For examination of growth rates on various substrates and metabolite production, BR425 was grown in 100 ml serum bottles containing 40 ml M9 salts and various concentrations of either α-pinene, β-pinene, limonene, carveol, carvone, or pinocarveol as the carbon source. The bottles were sealed with TEFLON-coated stoppers and aluminum caps (TEFLON is a trademark owned by E. I. du Pont and Nemours, Wilmington, Del.). Then the bottles were incubated in a water bath gyrorotatory shaker at 50° C. Growth of BR425 was assayed after incubations of 24, 48, and 72 hours as number of colony forming units (CFU).

pinene hydroxylase = experiment: Pinene hydroxylase activity in crude cell extracts; type: biochemical, Bacillus BR424; details: for pinene hydroxylase activity with cofactor: NADPH and NADH in place of FAD and potassium ferricyanide

Molecule: C=C1CCC2CC1C2(C)C (stereo not drawn) [β-pinene]
- growth in media containing the monoterpene (BR424): can grow
- growth in media containing the monoterpene as the carbon source (Bacillus isolate BR425): shown to grow
- optimal concentration for growth (Bacillus isolate BR425): 0.2%

Molecule: CC1=CCC2CC1C2(C)C (stereo not drawn) [α-pinene]
- growth in media containing the monoterpene (BR424): can grow
- optimal concentration for growth (Bacillus isolate BR425): 0.2%

Molecule: C=C(C)C1CC=C(C)C(=O)C1 (stereo not drawn) [carvone]
- growth in media containing the monoterpene as the carbon source (Bacillus isolate BR425): shown to grow
- optimal concentration for growth (Bacillus isolate BR425): 0.01%

Molecule: Cc1cc2nc3c(=O)[nH]c(=O)nc-3n(C[C@H](O)[C@H](O)[C@H](O)COP(=O)(O)OP(=O)(O)OC[C@H]3O[C@@H](n4cnc5c(N)ncnc54)[C@H](O)[C@@H]3O)c2cc1C [FAD, Flavin Adenine Dinucleotide]
- Enzyme activity (pinene hydroxylase; addition 0.1 mM FAD): 0.04 U/ml
- Enzyme activity (pinene hydroxylase; addition 1 mM FAD): 0.47 U/ml

Molecule: NC(=O)C1=CN([C@@H]2O[C@H](COP(=O)(O)OP(=O)(O)OC[C@H]3O[C@@H](n4cnc5c(N)ncnc54)[C@H](OP(=O)(O)O)[C@@H]3O)[C@@H](O)[C@H]2O)C=CC1 [NADPH]
- pinene hydroxylase activity with cofactor (pinene hydroxylase): No pinene hydroxylase activity was detected

Molecule: C=C(C)C1CC=C(C)[C@@H](O)C1 (stereo partly drawn) [carveol]
- growth in media containing the monoterpene as the carbon source (Bacillus isolate BR425): shown to grow
- optimal concentration for growth (Bacillus isolate BR425): 0.05%

Molecule: CC1(C)C2CC=C(CO)C1C2 (stereo not drawn) [myrtenol]
- growth in media containing the monoterpene as the carbon source (Bacillus isolate BR425): did not appear to grow

Molecule: C=C(C)[C@H]1CC=C(C)CC1 [limonene]
- growth in media containing the monoterpene (BR424): did not appear to be able to grow
- growth in media containing the monoterpene as the carbon source (Bacillus isolate BR425): shown to grow

Molecule: NC(=O)C1=CN([C@@H]2O[C@H](COP(=O)(O)OP(=O)(O)OC[C@H]3O[C@@H](n4cnc5c(N)ncnc54)[C@H](O)[C@@H]3O)[C@@H](O)[C@H]2O)C=CC1 [NADH]
- pinene hydroxylase activity with cofactor (pinene hydroxylase): No pinene hydroxylase activity was detected

Molecule: CC1(C)C2CC3OC3(C)C1C2 (stereo not drawn) [pinene epoxide]
- growth in media containing the monoterpene as the carbon source (Bacillus isolate BR425): did not appear to grow

Molecule: myrtenal
- growth in media containing the monoterpene as the carbon source (Bacillus isolate BR425): did not appear to grow
